In test [1] the test system is thymocytes of surrenalectomized rats. The test can be described thus: Antiglucocorticoidal activity, incorporation of tritiated uridine in thymocytes. It counts as cell-based. The following applies: for inhibition at 1 µM / inhibition at 0.1 µM / inhibition at 0.01 µM: Rattus norvegicus, Thymocyte; for inhibition at 0.1 µM: 5 × 10^-8 M dexamethasone + test product 10^-7 M; for inhibition at 0.01 µM: 5 × 10^-8 M dexamethasone + test product 10^-8 M; for opposition to the effect of dexamethasone on tritiated uridine incorporation (in words): with 5×10^-8 M dexamethasone.

Test [2] concerns the target T1, Gluocorticoid receptor of thymus of rats (Rattus norvegicus, UniProt P06536).
T1 construct: The thymus were removed and homogenized at 0° C; from tissue; host or cells: rat thymus, 105,000 g supernatant (adrenalectomized male Sprague-Dawley rats)
T1 sequence (P06536 1-795): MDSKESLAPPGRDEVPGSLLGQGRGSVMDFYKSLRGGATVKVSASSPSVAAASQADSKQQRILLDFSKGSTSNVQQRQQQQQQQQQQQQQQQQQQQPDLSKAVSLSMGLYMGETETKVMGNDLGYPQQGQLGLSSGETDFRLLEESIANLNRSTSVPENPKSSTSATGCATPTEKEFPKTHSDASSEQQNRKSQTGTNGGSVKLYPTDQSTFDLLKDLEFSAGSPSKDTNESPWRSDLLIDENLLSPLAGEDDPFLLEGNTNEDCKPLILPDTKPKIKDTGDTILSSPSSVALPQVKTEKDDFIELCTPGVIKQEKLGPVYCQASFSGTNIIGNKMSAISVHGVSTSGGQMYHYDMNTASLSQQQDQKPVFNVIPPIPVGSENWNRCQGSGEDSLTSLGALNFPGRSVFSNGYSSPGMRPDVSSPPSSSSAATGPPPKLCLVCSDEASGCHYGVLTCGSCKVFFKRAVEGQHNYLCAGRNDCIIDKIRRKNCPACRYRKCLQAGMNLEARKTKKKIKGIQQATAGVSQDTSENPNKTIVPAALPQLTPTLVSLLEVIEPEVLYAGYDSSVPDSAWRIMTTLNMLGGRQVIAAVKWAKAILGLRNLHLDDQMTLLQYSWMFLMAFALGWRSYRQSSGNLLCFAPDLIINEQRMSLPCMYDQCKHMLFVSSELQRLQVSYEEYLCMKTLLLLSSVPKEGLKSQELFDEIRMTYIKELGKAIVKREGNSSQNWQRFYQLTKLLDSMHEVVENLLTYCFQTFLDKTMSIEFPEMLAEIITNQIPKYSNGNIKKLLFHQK
The test can be described thus: Glucocorticoid receptor binding (displacement of tritiated dexamethasone). The protocol: D. Gluocorticoid receptor of thymus of rats
Male Sprague-Dawley EPOS rats weighing 160 to 200 g were surrenalectomized and the animals were killed 4 to 8 days later. The thymus were removed and homogenized at 0° C. in a buffered TS solution of 10 mM, Tris, 0.25M of Saccharose, 2 mM of dithiothreitol HCl for a pH of 7.4 using a polytetrafluoroethylene-glass Potter at a rate of 1 g of tissue per 10 ml of TS. […] The concentration of tied tritiated dexamethasone (B) was measured for each incubate by the adsorption on carbon-dextran technique.
(§1) The calculation of the relative affinity of […] (ARL) was identical for all of the above receptor tests. One traced the following two curves: the percentage of tied tritiated hormone B/T as a function of the logarithm of the cold hormone concentration and B/T as a function of the logarithm of the concentration of the cold test product. One determined the line of the equation. [formula]
(§2) The intersection of the I50 line and the curves permits one to determine the concentrations of the cold hormone of the reference (CH) and the cold test compound (CX) which inhibit by 50% the tieing of tritiated hormone with the receptor. The relative affinity of tieing (ARL) of the test product was determined by the equation: [formula]

Test [3] addresses T2, Estrogen receptor of uterus of mice (Mus musculus, UniProt P19785).
T2 construct: the uterus were removed and homogenized at 0° C; from tissue; host or cells: mouse uterus, 105,000 g supernatant (immature females 18 to 21 days old)
T2 sequence (P19785 1-599): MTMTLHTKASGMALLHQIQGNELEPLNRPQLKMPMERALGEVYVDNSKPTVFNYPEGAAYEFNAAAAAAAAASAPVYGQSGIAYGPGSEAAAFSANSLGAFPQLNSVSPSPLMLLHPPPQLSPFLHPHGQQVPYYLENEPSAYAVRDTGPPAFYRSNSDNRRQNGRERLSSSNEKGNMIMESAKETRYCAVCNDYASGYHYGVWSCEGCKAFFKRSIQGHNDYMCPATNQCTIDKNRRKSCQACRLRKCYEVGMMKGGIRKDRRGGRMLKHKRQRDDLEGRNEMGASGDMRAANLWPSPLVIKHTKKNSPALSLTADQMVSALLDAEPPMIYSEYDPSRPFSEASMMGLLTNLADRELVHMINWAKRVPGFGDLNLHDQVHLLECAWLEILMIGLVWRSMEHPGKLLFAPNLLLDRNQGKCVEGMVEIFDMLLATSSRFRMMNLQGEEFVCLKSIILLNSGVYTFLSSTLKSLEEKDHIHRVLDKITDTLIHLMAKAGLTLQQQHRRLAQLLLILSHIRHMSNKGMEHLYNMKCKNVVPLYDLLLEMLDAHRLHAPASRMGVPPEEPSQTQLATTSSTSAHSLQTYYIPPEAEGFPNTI
The test can be described thus: Estrogen receptor binding (displacement of tritiated estradiol). The protocol:
E. Estrogen receptor of uterus of mice
Immature female mice 18 to 21 days old were killed and the uterus were removed and homogenized at 0° C. with a polytetrafluoroethylene-glass Potter in a buffered TS solution consisting of 10 mM, Tris, 0125M Saccharose, HCl for a pH of 7.4 at a rate of 1 g of tissue per 25 ml of TS. The homogenate was then ultracentrigued at 105,000 g for 90 minutes at 0° C. and aliquoits of the resulting […] were incubated at 0° C. for a time (t) with a constant concentration (T) of tritiated estradiol in the presence of increasing concentrations (0 to 1000×10^-9 M) of either cold estradiol or cold test compound. The concentration of tied tritiated estradiol (B) was measured for each incubate by the technique of adsorption on carbon-dextran.
as §1, §2

The mark [4] stands for this setting: read-out: % inhibition of effect of Dexamethasone.
The mark [5] stands for this setting: second table, 5 × 10^-8 M dexamethasone + test product 10^-6 M, read-out: % of inhibition of effect of Dexamethasone.
Setting [6] is: second table, read-out: % of inhibition of effect of Dexamethasone.
[7] abbreviates: second table, incubation 4 H at 0° C.
[8] abbreviates: second table, incubation 24 H at 0° C.
The mark [9] stands for this setting: second table, incubation 2 H at 0° C.
Where [10] appears, read: 5 × 10^-8 M dexamethasone + test product 10^-6 M.

Experimental findings from patent US5043332A, “Novel 11β-substituted -19-nor-steriods” (priority 1981, dated 1991) are described below.

Where two headings read alike, the source gives them in different places.

Usually inhibition stands for the drop in the measured response relative to a control, in per cent. Turning to `CC#C[C@]1(O)CC[C@H]2[C@@H]3CCC4=CC(=O)C(C#N)(C#N)CC4=C3[C@@H](c3ccc(N(C)C)cc3)C[C@@]21C` [Example 9, 2,2-dicyano-11β-(4-dimethylaminophenyl)-17α-(prop-1-ynyl)-Δ^4,9-estradiene-17β-ol-3-one], the inhibition at 1 µM in test [1] (5 × 10^-8 M dexamethasone + test product 10^-6 M, read-out: % inhibition of effect of Dexamethasone) turned out to be 2%. The inhibition at 0.1 µM in test [1] (setting [4]) amounted to 1%. The inhibition at 0.01 µM in test [1] (setting [4]) amounted to 3%. Further, the “relative affinity of tieing (ARL), Glucocorticoid” value (“relative affinity … Glucocorticoid” below) was 14 in test [2] (incubation 4 H at 0° C.) and 7 in test [2] (incubation 24 H at 0° C.). The “relative affinity of tieing (ARL), Estrogen” value (“relative affinity … Estrogen” below) in test [3] (incubation 2 H at 0° C.) and in test [3] (incubation 5 H (25° C.)) was < 0,1 throughout.
For the compound `CC#C[C@]1(O)CC[C@H]2[C@@H]3CCC4=CC(=O)CCC4=C3[C@@H](c3ccc([N+](C)(C)[O-])cc3)C[C@@]21C` [Example 35, N-oxide of 11β-[4-(N,N-dimethylamino)-phenyl]-17α-(prop-1-ynyl)-Δ^4,9-estradiene-17β-ol-3-one], the inhibition at 1 µM in test [1] (setting [5]) was 50%. In addition, the inhibition at 0.1 µM in test [1] (setting [6]) is 21%. Also, in test [1] (setting [6]), the inhibition at 0.01 µM is 4%. Further, the “opposition to the effect of dexamethasone on tritiated uridine incorporation (in words)” value (from here on “opposition to the effect”) in test [1] is “opposed this effect”. In addition, the “relative affinity … Glucocorticoid” value was 7,8 in test [2] (setting [7]) and 5 in test [2] (setting [8]). The “relative affinity … Estrogen” value in test [3] (setting [9]) is reported as 0.
As for `CC#C[C@]1(OC(C)=O)CC[C@H]2[C@@H]3CCc4cc(O)ccc4[C@H]3[C@@H](c3ccc(N(C)C)cc3)C[C@@]21C` [2 (17 OAc), 11β-(4-dimethylaminophenyl)-17α-(prop-1-ynyl)-17β-acetoxy-Δ^1,3,5(10) -estratriene-3-ol], the “% inhibition of effect of Dexamethasone (symbol)” value (shortened to “% inhibition”) in test [1] (setting [10]) was “* (A dose of 10^-6 M inhibited the effect of dexamethasone totally)”. Besides, the inhibition at 0.1 µM in test [1] (setting [4]) was found to be 76%. Also, in test [1] (setting [4]), the inhibition at 0.01 µM was found to be 24%. In addition, the “relative affinity … Glucocorticoid” value in test [2] (incubation 4 H at 0° C.) was determined as 58; in test [2] (incubation 24 H at 0° C.) it was 100. Further, the “relative affinity … Estrogen” value was < 0,1 in test [3] (incubation 2 H at 0° C.) and 0,1 in test [3] (incubation 5 H (25° C.)).
With `CC#C[C@]1(O)CC[C@H]2[C@@H]3CCC4=CC(=O)[C@@H](C)CC4=C3[C@@H](c3ccc(N(C)C)cc3)C[C@@]21C` [5 (2β), 2-methyl-11β-(4-dimethylaminophenyl)-17α-(prop-1-ynyl)-Δ^4,9-estradiene-17β-ol-3-one], the “% inhibition” value in test [1] (setting [10]) is “* (A dose of 10^-6 M inhibited the effect of dexamethasone totally)”. The inhibition at 0.1 µM in test [1] (setting [4]) turned out to be 57%. Further, the inhibition at 0.01 µM in test [1] (setting [4]) was 10%. Moreover, the “relative affinity … Glucocorticoid” value in test [2] (incubation 4 H at 0° C.) came out at 224; in test [2] (incubation 24 H at 0° C.) it was 299. Also, the “relative affinity … Estrogen” value in test [3] (incubation 2 H at 0° C.) and in test [3] (incubation 5 H (25° C.)) was < 0,1 each time.
As to `CC#C[C@]1(O)CC[C@H]2[C@@H]3CCC4=C(CCC(=O)C4)[C@H]3[C@@H](c3ccc(N(C)C)cc3)C[C@@]21C` [Example 10, 11β-(4-dimethylaminophenyl)-17α-(prop-1-ynyl)-Δ^5(10) -estrene-17β-ol-3-one], the “% inhibition” value in test [1] (setting [10]) is listed as “* (A dose of 10^-6 M inhibited the effect of dexamethasone totally)”. Moreover, the inhibition at 0.1 µM in test [1] (setting [4]) was found to be 23%. Also, the inhibition at 0.01 µM in test [1] (setting [4]) came out at 0%. Further, in test [1], the “opposition to the effect” value is reported as “opposed this effect”. In addition, the figures for the “relative affinity … Glucocorticoid” value in test [2] (incubation 4 H at 0° C.) and in test [2] (incubation 24 H at 0° C.) were 83 and 115, respectively. The “relative affinity … Estrogen” value in test [3] (incubation 2 H at 0° C.) and in test [3] (incubation 5 H (25° C.)) was < 0,1 each time.
On to `CN(C)c1ccc([C@H]2C[C@@]3(C)[C@@H](CC[C@@]3(O)C#CCl)[C@@H]3CCC4=CC(=O)CCC4=C32)cc1` [Example 25, 11β-[4-(N,N-dimethylamino)-phenyl]-21-chloro-19-nor-17α-Δ^4,9-pregnadiene-20-yne-17β-ol-3-one], for which, in test [1] (setting [6]), the inhibition at 0.1 µM was found to be 85% and the inhibition at 0.01 µM was determined as 57%. Further, the “% of inhibition of effect of Dexamethasone (symbol)” value in test [1] (second table, 5 × 10^-8 M dexamethasone + test product 10^-6 M) is “* (A dose of 10^-6 M inhibited totally the effect of dexamethasone)”. In addition, the “opposition to the effect” value in test [1] is “opposed this effect”. Besides, the “affinity for glucocorticoid receptors (in words)” value in test [2] (conclusion) is reported as “very remarkable affinity”. For the same compound, in test [2] (setting [7]), the “relative affinity … Glucocorticoid” value was determined as 254. Also, the “relative affinity … Glucocorticoid” value in test [2] (setting [8]) is reported as 292. Further, in test [3] (setting [9]), the “relative affinity … Estrogen” value was found to be 0.
On to `C[C@]12C[C@H](c3ccc([N+](C)(C)[O-])cc3)C3=C4CCC(=O)C=C4CC[C@H]3[C@@H]1CC[C@@]2(O)C#CCl` [Example 26, N-oxide of 11β-[4-(N,N-dimethylamino)-phenyl]-21-chloro-19-nor-17α-Δ^4,9-pregnadiene-20-yne-17β-ol-3-one], for which, in test [1] (setting [5]), the inhibition at 1 µM amounted to 75%. Further, the inhibition at 0.1 µM in test [1] (setting [6]) is 34%. The inhibition at 0.01 µM in test [1] (setting [6]) stood at 14%. Besides, in test [1], the “opposition to the effect” value is on record as “opposed this effect”. Further, the figures for the “relative affinity … Glucocorticoid” value in test [2] (setting [7]) and in test [2] (setting [8]) were 9 and 14, respectively. Further, in test [3] (setting [9]), the “relative affinity … Estrogen” value came out at 0.
